From patent US12409129B2, “Skin care composition” (BEIERSDORF AG, priority 2019, dated 2025)

Legend:
C. acnes strain C3 = test: Minimum inhibitory concentration (MIC) / compatibility of cosmetic excipients; assay type: cell-based, Cutibacterium acnes; conditions: % w/vol, incubated anaerobically 3 days at 37° C, growth scored visually
Method: (§1) In microbiology, the MIC is the lowest concentration of a chemical which prevents visible growth of bacterium. The resulted MIC value depends both on the microorganism and the test compound. The MIC is determined by preparing concentrations series of the test compound in vitro, incubating the solutions with the separate batches of cultured bacteria, and measuring the results using agar dilution or broth microdilution. For the experiments with C. acnes strains C3 and K8, media comprising yeast extract soy peptone and dextrose were used. The MIC is determined by turbidity.
(§2) A total of 125 cosmetic excipients were tested for their compatibility with C. acnes strains C3 and K8. Hydrophilic compounds were tested in a 96-well plate liquid broth format, poorly soluble compounds were pre-dissolved in DMSO before dilution in liquid broth and hydrophobic or solid compounds were tested in an agar well diffusion test assay. The different dilutions of the test excipients in media were prepared in Falcon tubes and then distributed in a deep well plate using a multistepper. Each well received 1.2 ml and was subsequently inoculated with 120 μl of C. acnes bacteria suspension (strain C3 and K8). From the deep well plate 200 μl were transferred in each well of a clear 96 well replicate plate. The leftover was discarded. The plates were then incubated anaerobically for 3 days at 37° C. Following incubation, the test plates were visually examined and wells were scored for growth or complete growth inhibition to define the minimum inhibitory concentration.
(§3) These excipients are listed in the below table with their compatibility values for C. acnes strains C3 and K8. The compatibility values represent the MIC value of the listed ingredients with the tested C. acnes strains. At this concentration [% w/vol] the tested compound starts interfering with the growth of the tested strains. The compounds can be used in formulations at concentrations below this concentration.

C. acnes strain K8 = test: as above; assay type: cell-based, Cutibacterium acnes; conditions: % w/vol, incubated anaerobically 3 days at 37° C, growth scored visually
Method: as §1, §2, §3

| Molecule | COMPATABILITY VALUE C3 [%] (MIC value) (C. acnes strain C3) | COMPATABILITY VALUE K8 [%] (MIC value) (C. acnes strain K8) |
| --- | --- | --- |
| CCCCCCC(O)CO (centres unmarked) [caprylyl glycol] | 0.18% | 0.18% |
| ethylhexyl cocoate | 10.00% | 10.00% |
| CC(=O)Oc1c(C)c(C)c2c(c1C)CCC(C)(CCC[C@H](C)CCC[C@H](C)CCCC(C)C)O2 (some centres unmarked) [tocopheryl acetate] | 1.00% | 1.00% |
| O=C(O)CC(O)(CC(=O)O)C(=O)O [citric acid] | 0.33% | 0.08% |
| CCO [ethanol] | 3.75% | 3.75% |
| tocopherol | 1.50% | 1.50% |
| CC(CO)CO [methylpropanediol] | 4.00% | 4.00% |
